For test [1], the target named is T1, 50S ribosomal protein rplB (Staphylococcus aureus, UniProt P60430).
T1 construct: purified recombinant S. aureus rplB protein (His-Tag labeled)
The experiment in a line: microscale thermophoresis; also thermal shift of pure protein and competition with Sof-P labeling. The format is binding.

In test [2] the target is T2, 50S ribosomal protein rplB (Staphylococcus aureus, UniProt P60430).
T2 construct: purified recombinant rplB protein
T2 sequence (P60430 1-277): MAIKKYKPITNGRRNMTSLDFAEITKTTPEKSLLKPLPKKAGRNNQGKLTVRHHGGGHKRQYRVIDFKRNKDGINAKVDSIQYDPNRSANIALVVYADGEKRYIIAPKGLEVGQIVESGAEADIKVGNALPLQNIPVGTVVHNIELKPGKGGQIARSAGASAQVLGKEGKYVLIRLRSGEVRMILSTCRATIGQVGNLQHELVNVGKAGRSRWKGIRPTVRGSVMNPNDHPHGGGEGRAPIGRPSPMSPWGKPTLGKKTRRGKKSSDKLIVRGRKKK
The experiment in a line: in-gel fluorescence covalent labeling of purified recombinant protein (click chemistry), competed by Sof and IAA. The format is binding.

pKd: −log10 of the molar value.

This is an account of results in PMC12102032, “Chemoproteomics unveils Sofalcone targeting ribosomal proteins to inhibit protein synthesis in Staphylococcus aureus” (Molecular Biomedicine, 2025).

Regarding `CC(C)=CCOc1ccc(/C=C/C(=O)c2ccc(OCC=C(C)C)cc2OCC(=O)O)cc1` [Sof, 2′-carboxymethoxy-4,4′-bis(3-methyl-2-butenyloxy) chalcone], the pKd in test [1] was 5.90.

With `C#CCNC(=O)COc1cc(OCC=C(C)C)ccc1C(=O)/C=C/c1ccc(OCC=C(C)C)cc1` [Sof-P], the “in-gel fluorescence covalent labeling of purified recombinant protein (click che)” value in test [2] was “Sof-P labeling of recombinant rplB was concentration-dependent and was effectively competed by excess Sof or iodoacetamide (IAA)”.

By pKd is commonly meant the negative decadic logarithm of the Kd, by convention in mol/L.
